Columns and labels:
Experiment in all cases: fluorescence-based COX inhibitor assay kit
Type in all cases: biochemical
[1] = target: T1, COX-1 (Ovis aries, UniProt P05979); conditions: […] compound
T1 construct: gene PTGS1; construct not described
T1 sequence (P05979 25-600): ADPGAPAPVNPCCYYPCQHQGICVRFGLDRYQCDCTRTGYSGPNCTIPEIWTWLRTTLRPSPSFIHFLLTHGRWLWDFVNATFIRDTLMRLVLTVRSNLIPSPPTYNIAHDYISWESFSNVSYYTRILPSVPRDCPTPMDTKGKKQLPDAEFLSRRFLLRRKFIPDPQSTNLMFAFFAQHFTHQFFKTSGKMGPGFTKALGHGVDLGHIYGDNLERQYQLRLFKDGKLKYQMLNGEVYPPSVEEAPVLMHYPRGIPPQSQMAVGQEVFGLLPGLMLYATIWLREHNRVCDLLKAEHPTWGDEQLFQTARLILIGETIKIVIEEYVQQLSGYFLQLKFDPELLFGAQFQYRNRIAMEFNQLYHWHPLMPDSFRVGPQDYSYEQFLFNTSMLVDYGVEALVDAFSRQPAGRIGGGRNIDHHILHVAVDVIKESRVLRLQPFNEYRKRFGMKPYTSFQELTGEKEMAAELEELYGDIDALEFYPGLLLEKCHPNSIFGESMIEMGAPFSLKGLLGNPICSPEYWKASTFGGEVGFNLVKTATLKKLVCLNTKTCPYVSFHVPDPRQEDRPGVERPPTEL
Excerpt: fluorescence-based COX inhibitor assay kit on COX-1

[2] = target: T2, COX-2 (Homo sapiens, UniProt P35354); conditions: […] compound
T2 construct: gene PTGS2; construct not described
T2 sequence (P35354 18-604): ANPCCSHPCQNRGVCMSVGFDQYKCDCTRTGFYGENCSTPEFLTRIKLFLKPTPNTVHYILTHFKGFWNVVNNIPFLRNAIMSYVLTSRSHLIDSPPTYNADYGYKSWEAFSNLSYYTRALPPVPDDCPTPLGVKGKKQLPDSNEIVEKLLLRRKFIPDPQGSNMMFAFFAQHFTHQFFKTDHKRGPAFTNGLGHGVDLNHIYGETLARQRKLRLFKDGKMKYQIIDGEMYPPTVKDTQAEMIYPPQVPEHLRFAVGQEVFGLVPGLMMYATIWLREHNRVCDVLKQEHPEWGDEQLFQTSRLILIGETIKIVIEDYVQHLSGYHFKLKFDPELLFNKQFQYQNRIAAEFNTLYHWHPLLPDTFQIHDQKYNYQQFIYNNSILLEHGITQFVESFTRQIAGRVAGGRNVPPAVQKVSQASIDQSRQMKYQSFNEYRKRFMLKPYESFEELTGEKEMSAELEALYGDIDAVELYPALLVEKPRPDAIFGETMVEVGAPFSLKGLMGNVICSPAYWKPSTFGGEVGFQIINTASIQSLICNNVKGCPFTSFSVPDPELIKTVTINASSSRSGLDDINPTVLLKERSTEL

[3] = target: T2, COX-2

Substance | % Inhibition @ 100 μM / COX-1 [1] [%] | further results
[Ru(η^6-p-cymene)-1-{methyl (R/S)-2-[4-(2-fluorobiphenyl-4-yl)propanoic acid ester]-closo-C2B9H10}] [4a] | 33 | 
Cesium 1-(1′-hydroxymethyl)-nido-carborane [2a] |  | % Inhibition @ 100 μM / COX-2 [2]: 38%
Cesium 1-(2′-hydroxyethyl)-nido-carborane [2b] |  | IC50 [3]: 84.1 µM
[Ru(η^6-p-cymene)-2-{ethyl (R/S)-2-[4-(2-fluorobiphenyl-4-yl)propanoic acid ester]-closo-C2B9H10}] [4b] | 40 | 
[Ru(η^6-p-cymene)-2-{ethyl (R/S)-2-[4-(2-propylphenyl)propanoic acid ester]-closo-C2B9H10}] [6b] | 30 | 
